The values below come from article PMC7261837, “Circumdatin D Exerts Neuroprotective Effects by Attenuating LPS-Induced Pro-Inflammatory Responses and Downregulating Acetylcholinesterase Activity In Vitro and In Vivo” (Frontiers in Pharmacology, 2020).

Assay [1] deals with T1, acetylcholinesterase (AChE) from Electrophorus electrics (Electric eel) (Electrophorus electricus, UniProt O42275).
T1 construct: purchased Sigma Chemical Co. (St Louis, MO, USA)
The experiment in a line: biochemical. To be noted: modified Ellman's colorimetric method; mean ± SD (n = 3). An excerpt:
Dulbecco's modified Eagle medium (DMEM), α-minimum essential medium (α-MEM) and fetal bovine serum (FBS) were provided by Hyclone (Waltham, USA). 3-(4,5-Dimethylthiazol-2-yl)-2,5-diphenyltetrazolium bromide (MTT), acetylcholinesterase (AChE) from Electrophorus electrics (Electric eel) and lipopolysaccharide (LPS) (Escherichia coli 055: B5) were provided by Sigma Chemical Co. (St Louis, MO, USA). Enzyme-linked immunosorbent assay (ELISA) kits for IL-1β and TNF-α and Griess reagent for nitric oxide (NO) assay kit were provided by ExCell Bio (Shanghai, China). Antibodies for TLR4, MyD88, JNK, p-JNK, p38, p-p38, ERK, p-ERK, IκB, p-IκB, IKK, p-IKK, NF-κB, STAT3、p-STAT3、Jak2, p-Jak2, GAPDH and Histone H3 were purchased from Cell Signaling Technology (Danvers, USA). Antibodies for iNOS and COX-2 were provided by Abcam (Cambridge, UK).
AChE activities in vitro and in vivo were assessed by a modified Ellman's spectrophotometric method ([Szwajgier, 2015]). Briefly, AChE (80 μl) in phosphate buffer (Na2HPO4/NaH2PO4, pH 8.0) and compound (20 μl) diluted in same phosphate buffer were added to 96 microplates as the reaction mixture. The mixture was incubated at 37°C for 30 min before addition of 10 μl 5,5′-dithiobis (2-nitrobenzoic acid) (DTNB) (3 mM) and 10 μl acetylthiocholine iodide (ATCI) (15 mM). After incubation for 20 min, the absorbance was detected at 412 nm using a microplate spectrophotometer (Thermo Scientifics, USA). […] The inhibitory rate of AChE was calculated, and the IC50 values were calculated by GraphPad Prism® 5.0 software (GraphPad Inc., San Diego, USA).
On the technique in general: In Ellman's method for cholinesterases, released thiocholine reacts with DTNB.

Assay [2] deals with BV-2 cells. The assay is described as follows: LPS-induced NO production in BV-2 cells (Griess method). It is filed as cell-based, murine. The note with it: 1 μg/ml LPS, 24 h. On the procedure:
BV-2 cells (murine microglia cell line) was obtained from Peking Union Medical College, Cell Bank (Beijing, China) and maintained in DMEM containing 10% FBS. Cells were grown in a humidified atmosphere of 5% CO2 incubator at 37°C.
BV2 cells were seeded and incubated overnight, and followed by treatment with different doses of circumdatins for indicated period with or without LPS (1 μg/ml) stimulation. The cells without circumdatins and LPS treatment were used as the control group.
The NO levels in culture media was determined using a Griess method. Cells were treated with different concentrations of circumdatins in the presence or absence of LPS for 24 h. After that, the supernatant fraction of the culture media was collected and mixed with the same volume of Griess reagent (1% sulfanilamide/0.1% naphthyl ethylene diamine dihydrochloride/2% H3PO4). Then, the absorbance was measured at 540 nm using a microplate spectrophotometer (Thermo Scientifics, USA). The concentration of nitrite was calculated from a calibration curve obtained from standards sodium nitrite solutions.
In general terms: Nitrite, measured by Griess reagent, commonly stands in for NO production.

Assay [3] has as its target Recombinant AChE (Homo sapiens, UniProt P22303). The experiment in a line: biochemical. To be noted: SPR, 25°C, 1:1 Langmuir binding model; read-out: AChE Affinity Kd. As to the method:
The experiments for surface plasmon resonance (SPR) interaction were conducted at 25°C using the Biacore T200 system (GE Healthcare, Sweden). Recombinant AChE diluted in sodium acetate buffer (100 mM, pH 4.5) was used as the stock for the following experiments. CM5 sensor chips were coupled with AChE using an amine coupling kit (GE Healthcare, Buckinghamshire, UK). Thereafter, different concentrations of compounds were injected as analytes using PBS-P (10mM phosphate buffer with 2.7 mM KCl and 137 mM NaCl, 0.05% polysorbate 20, […]) as running buffer. For binding assays, the analytes were introduced with a 60 s contact time followed by a 60 s dissociation time at a flow rate of 45 μl/min. The surface was regenerated with 10 mM glycine (pH 3.0) for 30 s. The affinity constants were calculated using the 1:1 Langmuir binding model of Biacore evaluation software (T200 Version 1.0).

In assay [4] the test system is NF-κB. The assay is described as follows: NF-κB luciferase reporter assay. The assay is classed as cell-based. The note with it: Homo sapiens; SW480 cells stably transfected with NF-κB luciferase reporter gene, induced by LPS; mean ± SD (n = 3); read-out: NF-κB Activation IC50. On the procedure: SW480-NF-κB cells were seeded at a density of 5 × 10^4 cells/well in 24-well plates and incubated with circumdatins with or without LPS stimulation for 6 h. The κB-dependent luciferase reporter activity in cell extracts was monitored using an automated microplate reader.
For orientation: In a reporter assay the amount or activity of a reporter protein is the signal.

Recombinant AChE, sequence (P22303 32-614): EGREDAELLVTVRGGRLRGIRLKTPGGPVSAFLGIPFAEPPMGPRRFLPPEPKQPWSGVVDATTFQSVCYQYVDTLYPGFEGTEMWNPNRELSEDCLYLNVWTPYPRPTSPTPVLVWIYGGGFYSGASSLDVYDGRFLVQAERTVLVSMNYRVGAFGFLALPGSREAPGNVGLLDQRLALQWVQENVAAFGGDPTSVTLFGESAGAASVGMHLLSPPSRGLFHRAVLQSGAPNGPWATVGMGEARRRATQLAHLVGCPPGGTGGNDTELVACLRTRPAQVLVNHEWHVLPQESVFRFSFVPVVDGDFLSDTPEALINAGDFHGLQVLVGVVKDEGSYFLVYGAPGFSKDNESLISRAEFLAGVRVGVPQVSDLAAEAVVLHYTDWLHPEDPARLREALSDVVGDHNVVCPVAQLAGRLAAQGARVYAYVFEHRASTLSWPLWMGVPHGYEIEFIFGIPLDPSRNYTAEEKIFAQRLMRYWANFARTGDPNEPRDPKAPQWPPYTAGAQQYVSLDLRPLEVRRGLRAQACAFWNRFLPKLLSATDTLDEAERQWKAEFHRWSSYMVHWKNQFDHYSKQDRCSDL
T1 sequence (O42275 24-633): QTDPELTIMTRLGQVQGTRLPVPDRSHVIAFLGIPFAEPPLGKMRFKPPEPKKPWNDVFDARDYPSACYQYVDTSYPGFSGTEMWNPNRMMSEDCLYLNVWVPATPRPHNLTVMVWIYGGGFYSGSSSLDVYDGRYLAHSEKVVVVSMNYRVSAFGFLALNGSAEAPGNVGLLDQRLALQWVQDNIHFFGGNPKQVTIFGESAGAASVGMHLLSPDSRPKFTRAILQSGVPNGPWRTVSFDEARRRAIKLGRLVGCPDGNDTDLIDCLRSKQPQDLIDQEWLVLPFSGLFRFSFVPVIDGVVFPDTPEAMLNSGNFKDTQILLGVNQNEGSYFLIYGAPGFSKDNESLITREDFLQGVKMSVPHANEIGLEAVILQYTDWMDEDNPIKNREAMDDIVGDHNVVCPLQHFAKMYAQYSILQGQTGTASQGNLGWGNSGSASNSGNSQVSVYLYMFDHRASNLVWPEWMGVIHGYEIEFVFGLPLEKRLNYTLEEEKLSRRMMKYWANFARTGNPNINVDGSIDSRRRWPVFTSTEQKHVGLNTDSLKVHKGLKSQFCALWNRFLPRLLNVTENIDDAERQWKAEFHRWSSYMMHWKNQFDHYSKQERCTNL

Take `C[C@@H]1NC(=O)c2ccccc2-n2c1nc1c(O)cccc1c2=O` [circumdatin G]: the IC50 (commonly the point on the concentration scale where inhibition reaches its midpoint) in assay [1] was 15.8 ± 2 µM; in assay [4] it was 18.9 ± 2.1 µM. Besides, in assay [2], the “LPS-induced NO production” value was “significant reduction of NO levels”. Also, the Kd (as a rule, the free concentration of one partner at which half of the binding sites on the other are occupied at equilibrium, for simple one-to-one binding) in assay [3] worked out at 120 µM.

Take `COc1ccc2nc3n(c(=O)c2c1)-c1ccccc1C(=O)N1CCC[C@@H]31` [circumdatin H]: the half-inhibitory concentration (IC50) in assay [1] was found to be 98 ± 5.7 µM; in assay [4], 33.3 ± 1.4 µM. Besides, the “LPS-induced NO production” value in assay [2] is recorded as “decreased NO production only in high dose”. In assay [3], the dissociation constant (Kd) was 95 µM.

`C[C@@H]1NC(=O)c2cc(O)ccc2-n2c1nc1ccccc1c2=O` [circumdatin C]: the “LPS-induced NO production” value in assay [2] was “decreased NO production only in high dose”. For the same compound, the Kd in assay [3] was determined as 85 µM. The half-maximal inhibitory concentration (IC50) in assay [4] came to 15.6 ± 2.3 µM.

As to `C[C@@H]1NC(=O)c2ccccc2-n2c1nc1ccccc1c2=O` [circumdatin F], the results for the IC50 in assay [1] and in assay [4] were 10 ± 1.9 µM and 11.8 ± 0.9 µM, respectively. Moreover, in assay [2], the “LPS-induced NO production” value was “decreased NO production only in high dose”. Besides, the Kd in assay [3] was 240 µM.

Turning to `C[C@@H]1NC(=O)c2cc(O)c(O)cc2-n2c1nc1ccccc1c2=O` [2-hydroxycircumdatin C], the IC50 is 5.6 ± 0.9 µM in assay [1] and 16.5 ± 1.9 µM in assay [4]. In addition, the Kd in assay [3] amounted to 3.6 µM.

`C[C@@H]1NC(=O)c2cc(O)ccc2-n2c1nc1c(O)cccc1c2=O` [circumdatin I]: the concentration for half-maximal inhibition (IC50) in assay [1] was 11.6 ± 2.6 µM; in assay [4] it was 18.6 ± 1.9 µM. For the same compound, in assay [2], the “LPS-induced NO production” value is “decreased NO production only in high dose”. For the same compound, in assay [3], the Kd is 65 µM.
